Where two headings read alike, the source gives them in different places.
What was measured:
[1] = system: Bacillus atrophaeus and Bacillus stearothermophilus; test: Reduction in viable cell count after 5 min exposure to sterilant and/or ultrasound; format: cell-based
Experimental: Comparative testing with exposure for 5 min to ultrasound at 250 kHz, 500 kHz and 1 MHz and using ultrasound and sterilant in separation as well as in combination was conducted and the reduction in viable cell count was determined using standard methodology.

[2] = system: Bacillus atrophaeus and Bacillus stearothermophilus; test: Growth of surviving bacteria colonies after exposure; format: cell-based; conditions: 500 kHz test; observed at 24, 48 and 96 hours (FIGS. 8 and 9)
Excerpt: In the parallel tests with hydrogen peroxide and ultrasound, the effect was much less significant (see FIG. 10) than with the test series using ultrasound and ozone. The effect seems to be more evident with ozone than with hydrogen peroxide. […] At the very least their reproductive system appears to have been severely compromised.

[3] = 500 kHz test series, cells suspended in distilled water, ozone 3.7 ppm, hydrogen peroxide 1.5% w/w, glutaraldehyde 0.2%, control normalized 100%

Compound | Percentage reduction in number of viable cells upon a 5 minute exposure [1, 3] | inhibition at 1.5 % strength ([1]; 1 MHz test series, cells suspended in distilled water, ozone 3.7 ppm, hydrogen peroxide 1.5% w/w, control normalized 100%, read-out: Percentage reduction in number of viable cells upon a 5 minute exposure) | inhibition at 1.5 % strength ([1]; read-out: Percentage reduction in number of viable cells upon a 5 minute exposure, 500 kHz test series, cells suspended in distilled water, ozone 3.7 ppm, hydrogen peroxide 1.5% w/w, glutaraldehyde 0.2%, control normalized 100%) | growth of surviving bacteria colonies after exposure [2] | Percentage reduction in number of viable cells upon a 5 minute exposure ([1]; 1 MHz test series, cells suspended in distilled water, ozone 3.7 ppm, hydrogen peroxide 1.5% w/w, control normalized 100%)
O=CCCCC=O [Glutaraldehyde, glutaraldehdye] | 86% |  |  |  | 
OO [Hydrogen Peroxide, hydrogen peroxide] |  | 68% | 59% |  | 
O=[O+][O-] [Ozone] | 81% |  |  | bacteria colonies were visible after 24 hours | 71%

— patent US20150314021A1, “STERILIZATION METHOD COMPRISING STERILIZATION FLUID AND ULTRASONICALLY GERERATED CAVITATION MICROBUBBLES” (DEVIS TECHNOLOGIES INC., priority 2012, published 2015)
